Like-named read-outs stand apart in the source and are kept apart here.
Experiments:
Assay in all cases: Tumor cell proliferation inhibitory activity test in vitro (MTT)
[1] = tested on: hepatocellular carcinoma cell HEPG2; format: cell-based, human; settings: read-out: IC50 of compounds for tumor cells, Activity, HEPG2
From the text: (§1) Human non-small cell lung cancer cell line NCI-H460, human small cell lung cancer cell line NCI-H446, human hepatocellular carcinoma cell strain HepG2, human colon carcinoma cell strain HCT116, human prostate cancer PC-3, human melanoma A375, colon carcinoma cell HCT-8, breast cancer cell MCF-7, ovarian cancer cell A2780s, drug-resistant ovarian cancer cell A2780/T, drug-resistant colon cancer cell HCT-8/T and doxorubicin-resistant breast cancer cell MCF-7/ADR are obtained from American Type Culture Collection (ATCC) and are cultured and preserved by the cell bank of State Key Laboratory of Biotherapy of Sichuan University. Above tumor cells are routinely cultured in DMEM culture medium containing 10% fetal bovine serum, 100 U·mL-1 penicillin and 100 mg·L−1 streptomycin, and in an incubator at 37° C. and with saturated humidity and 5% CO2 concentration.
(§2) Fill diluted cell suspension in the 96-well plate with 1000-10000 cells per well and incubate it in CO2 incubator overnight.
(§3) Replace with new medium containing various concentrations of compounds to be tested for the test group and replace with fresh medium with equal volume for the control group, each group is arranged with 5 parallel wells and incubated in an incubator at 37° C. and with 5% CO2 concentration.
(§4) Discard the supernatant after 72 hours, add 200 μL freshly prepared serum-free medium containing 0.2 mg/mL MTT into each well, continue to incubate at 37° C. for 1-4 hours, then stop incubation, carefully remove the culture supernatant in the wells and add 200 uL DMSO (dimethyl sulfoxide), oscillate with a miniature ultrasonic oscillator for 15-20 minutes to make the crystal fully dissolved and mixed. Determine OD values using a microplate reader at 570 nm with a reference wavelength of 450 nm.
(§5) Draw curves based on the growth inhibition rate for tumor cells of the same sample with different concentrations to get dose-response curve, so as to calculate IC50. Repeat each test for 3 times, measure IC50 (μM) or nanomolor concentration (nM) of compounds in different tumor cells.

[2] = tested on: colon carcinoma cell HCT116; format: cell-based, human; settings: read-out: IC50 of compounds for tumor cells, Activity, HCT116
From the text: as §1, §2, §3, §4, §5

melanoma A375 = format: cell-based, human; settings: read-out: IC50 of compounds for tumor cells, Activity, A375
From the text: as §1, §2, §3, §4, §5

prostate cancer PC-3 = format: cell-based, human; settings: 72 hours, read-out: IC50 of compounds for tumor cells, Activity, PC-3
From the text: as §1, §2, §3, §4, §5

[3] = tested on: non-small cell lung cancer cell line NCI-H460; format: cell-based, human; settings: read-out: IC50 of compounds for tumor cells, Activity, H460
From the text: as §1, §2, §3, §4, §5

breast cancer cell MCF-7 = format: cell-based; settings: read-out: IC50 of compounds for tumor cells, Activity, MCF-7
From the text: as §1, §2, §3, §4, §5

[4] = Homo sapiens, HCT-116, 72 hours
[5] = Homo sapiens, NCI-H460, 72 hours

Compound	IC50 ([1]; 72 hours) [µM]	IC50 ([2]; 72 hours) [µM]	IC50 (melanoma A375; 72 hours) [µM]	IC50 (prostate cancer PC-3) [µM]	IC50 ([3]; 72 hours) [µM]	IC50 (breast cancer cell MCF-7; 72 hours) [µM]	IC50 ([1]; Homo sapiens, HepG2, 72 hours) [µM]	IC50 [2, 4] [µM]	IC50 (melanoma A375; Homo sapiens, A-375, 72 hours) [µM]	IC50 (prostate cancer PC-3; Homo sapiens) [µM]	IC50 [3, 5] [µM]	IC50 (breast cancer cell MCF-7; Homo sapiens, MCF7, 72 hours) [µM]
4-(N-methyl-N-(4-methoxy-3-(2-methylphenyl-methoxycarbonyl)-benzene)-amino) Coumarin [COUM-63]	0.1 to 5	0.1 to 5	0.1 to 5	0.1 to 5	0.1 to 5	0.1 to 5						
4-(N-methyl-N-(4-methoxy-3-(2-pyrrole ethoxy)-benzene)-amino) Coumarin [COUM-52]	0.1 to 5	0.1 to 5	0.1 to 5	0.1 to 5	0.1 to 5	0.1 to 5						
4-(N-methyl-N-(4-methoxy-3-(3-chlorophenyl-methoxycarbonyl)-benzene)-amino) Coumarin [COUM-62]	0.1 to 5	0.1 to 5	0.1 to 5	0.1 to 5	0.1 to 5	0.1 to 5						
4-(N-methyl-N-(4-methoxy-3-(4-fluorobenzene) methanesulfonate-benzene)-amino) Coumarin [COUM-56]	0.1 to 5	0.1 to 5	0.1 to 5	0.1 to 5	0.1 to 5	0.1 to 5						
4-(N-methyl-N-(4-methoxy-3-((4-ethylbenzene) methoxycarbonyl)-benzene)-amino) Coumarin [COUM-53]	0.1 to 5	0.1 to 5	0.1 to 5	0.1 to 5	0.1 to 5	0.1 to 5						
4-(N-methyl-N-(4-methoxy-3-(furan-2-yl-methoxycarbonyl)-benzene)-amino) Coumarin [COUM-61]	0.1 to 5	0.1 to 5	0.1 to 5	0.1 to 5	0.1 to 5	0.1 to 5						
O=c1cc(-c2ccc(-c3cccc(Cl)c3)s2)c2ccccc2o1 [COUM-8, 4-(5-(3-chlorobenzene)thiophene-2-yl)-coumarin]							> 5	> 5	> 5	> 5	> 5	> 5
COc1ccc2c(-c3ccc(-c4ccc5c(c4)OCO5)s3)cc(=O)oc2c1 [COUM-11, 4-(5-(3,4-(methylenedioxy)benzene)thiophene-2-yl)-7-methoxyl-coumarin]							> 5	> 5	> 5	> 5	> 5	> 5
COc1ccc2c(-c3ccc(-c4ccccc4OC)s3)cc(=O)oc2c1 [COUM-12, 4-(5-(2-methoxybenzene)thiophene-2-yl)-7-methoxyl-coumarin]							> 5	> 5	> 5	> 5	> 5	> 5
CCOC(=O)c1cccc(-c2ccc(-c3cc(=O)oc4cc(OC)ccc34)s2)c1 [COUM-13, 4-(5-(3-ethoxycarbonylbenzene)thiophene-2-yl)-7-methoxyl-coumarin]							> 5	> 5	> 5	> 5	> 5	> 5
COc1ccc(-c2ccc(-c3cc(=O)oc4ccccc34)o2)cc1 [COUM-15, 4-(5-(4-methoxyphenyl)furan-2-yl)-coumarin]							> 5	> 5	> 5	> 5	> 5	> 5
CS(=O)(=O)c1ccc(-c2ccc(-c3cc(=O)oc4ccccc34)o2)cc1 [COUM-16, 4-(5-(4-methylsulfonylphenyl)furan-2-yl)-coumarin]							> 5	> 5	> 5	> 5	> 5	> 5
Cc1ccc(-c2ccc(-c3cc(=O)oc4ccccc34)o2)cc1 [COUM-17, 4-(5-(4-methylphenyl)furan-2-yl)-coumarin]							> 5	> 5	> 5	> 5	> 5	> 5
COc1ccccc1-c1ccc(-c2cc(=O)oc3ccccc23)o1 [COUM-18, 4-(5-(2-methoxyphenyl)furan-2-yl)-coumarin]							> 5	> 5	> 5	> 5	> 5	> 5
O=c1cc(-c2ccc(-c3ccccc3)o2)c2ccccc2o1 [COUM-19, 4-(5-phenylfuran-2-yl)-coumarin]							> 5	> 5	> 5	> 5	> 5	> 5
COc1cc(-c2ccc(-c3cc(=O)oc4ccccc34)o2)cc(OC)c1OC [COUM-20, 4-(5-(3,4,5-trimethoxyphenyl)furan-2-yl)-coumarin]							> 5	> 5	> 5	> 5	> 5	> 5
O=c1cc(-c2ccc(-c3ccc(Cl)cc3)o2)c2ccccc2o1 [COUM-21, 4-(5-(4-chlorobenzene)furan-2-yl)-coumarin]							> 5	> 5	> 5	> 5	> 5	> 5
O=c1cc(-c2ccc(-c3cccc(Cl)c3)o2)c2ccccc2o1 [COUM-22, 4-(5-(3-chlorobenzene)furan-2-yl)-coumarin]							> 5	> 5	> 5	> 5	> 5	> 5
COc1ccc2c(-c3ccc(-c4cc(OC)c(OC)c(OC)c4)o3)cc(=O)oc2c1 [COUM-23, 4-(5-(3,4,5-trimethoxybenzene)furan-2-yl)-7-methoxyl-coumarin]							> 5	> 5	> 5	> 5	> 5	> 5
COc1ccc2c(-c3ccc(-c4ccc(C)cc4)o3)cc(=O)oc2c1 [COUM-24, 4-(5-(4-methylbenzene)furan-2-yl)-7-methoxyl-coumarin]							> 5	> 5	> 5	> 5	> 5	> 5
COc1ccc2c(-c3ccc(-c4ccc5c(c4)OCO5)o3)cc(=O)oc2c1 [COUM-25, 4-(5-(3,4-(methylenedioxy)benzene)furan-2-yl)-7-methoxyl-coumarin]							> 5	> 5	> 5	> 5	> 5	> 5
COc1ccc2c(-c3ccc(-c4ccccc4OC)o3)cc(=O)oc2c1 [COUM-26, 4-(5-(2-methoxybenzene)furan-2-yl)-7-methoxyl-coumarin]							> 5	> 5	> 5	> 5	> 5	> 5
CCOC(=O)c1cccc(-c2ccc(-c3cc(=O)oc4cc(OC)ccc34)o2)c1 [COUM-27, 4-(5-(3-ethoxycarbonylbenzene)furan-2-yl)-7-methoxyl-coumarin]							> 5	> 5	> 5	> 5	> 5	> 5
COc1ccc2c(-c3ccc(-c4ccc(Cl)cc4)o3)cc(=O)oc2c1 [COUM-28, 4-(5-(4-chlorobenzene)furan-2-yl)-7-methoxyl-coumarin]							> 5	> 5	> 5	> 5	> 5	> 5
COc1cccc(-c2ccc(-c3cc(=O)oc4ccccc34)s2)c1 [COUM-29, 4-(5-(3-methoxyphenyl)thiophene-2-yl)-coumarin]							> 5	> 5	> 5	> 5	> 5	> 5
O=c1cc(-c2ccc(-c3ccccc3Cl)s2)c2ccccc2o1 [COUM-30, 4-(5-(2-chlorobenzene)thiophene-2-yl)-coumarin]							> 5	> 5	> 5	> 5	> 5	> 5

Source: patent US10544134B2, “4-substituted coumarin derivatives and preparation methods and uses thereof” (SI CHUAN UNIVERSITY, priority 2015, dated 2020)
